Test results from US20250352539A1, “COMBINATION THERAPY FOR TREATING CANCER” (AstraZeneca AB, priority 2022, published 2025).
Like-named read-outs stand apart in the source and are kept apart here.

Key:
Assay in all cases: 10-day Cell Titre Glo combination screen
Assay type in all cases: cell-based
[1] = system: A549; conditions: Homo sapiens; A549 lung; monotherapy; read-out: mono AC50
Description: (§1) The Highest Single Agent (HSA) model is used to determine a combination's synergy score (and is based simply on the intuition that if a combination's effect exceeds the effect level of each of its constituents, there must be some combination interaction). Mathematically, the HSA model describes simple superposition of the single agent curves:
(§2) where CX,Y are the concentrations of the X and Y compound, and IX and IY are inhibitions of the single agents at CX,Y. It is also useful to calculate a volume score (HSA Volume) between the data and the HSA surface to characterise the overall strength of combination effects. Empirically derived combination matrices are compared to their respective HSA additivity models constructed from experimentally collected single agent dose response curves. Summation of this excess additivity across the dose response matrix is referred to HSA Volume.
(§3) Potency shifting can also be scored using combination index (CI). For a chosen iso-effect level (ICut), CI is calculated as: […]
(§4) where (CX/ECX) for a particular data point is the ratio of the X compound's measured concentration to its effective concentration at the chosen effect level. The CI is a rough estimate of how much drug was needed in combination relative to the single agent doses required to achieve the chosen effect level. CI values in the range of 0.5-0.7 are typical for in vitro measurements of current clinical combinations. The CI error (σCI) is calculated using standard error propagation through the CI calculation based on the isobologram errors.
(§5) This combination screen was a 10-day assay using Cell Titre Glo as the readout for viability.
(§6) The assay was performed in 384 well plates, with 1 cell line and 4 drug-drug combinations per plate dosed in a 6×6 matrix. A day zero reading was measured to determine growth inhibition. GenedataScreener was used to input the raw values for every well, and the software was programmed to normalise the values to the day zero and DMSO control values.
(§7) The CellTiter-Glo® Luminescent Cell Viability Assay is a homogeneous method to determine the number of viable cells in culture based on quantitation of the ATP present, which signals the presence of metabolically active cells. It relies on the properties of a proprietary thermostable luciferase (Ultra-Glo™ Recombinant Luciferase), which generates a stable “glow-type” luminescent signal and improves performance across a wide range of assay conditions.
(§8) The following information was reported: Synergy scores (HSA); combination index values; AC50 (half-maximal activity concentration) monotherapy values.

[2] = system: BT474C1; conditions: BT474C1 breast; monotherapy; read-out: mono AC50
Description: as §1, §2, §3, §4, §5, §6, §7, §8

[3] = system: CAL-120; conditions: Homo sapiens; CAL-120 breast; monotherapy; read-out: mono AC50
Description: as §1, §2, §3, §4, §5, §6, §7, §8

[4] = system: CAL-51; conditions: Homo sapiens; CAL-51 breast; monotherapy; read-out: mono AC50
Description: as §1, §2, §3, §4, §5, §6, §7, §8

[5] = system: Calu-1; conditions: monotherapy, read-out: mono AC50
Description: as §1, §2, §3, §4, §5, §6, §7, §8

[6] = system: DMS53; conditions: Homo sapiens, DMS-53; DMS53 lung; monotherapy; read-out: mono AC50
Description: as §1, §2, §3, §4, §5, §6, §7, §8

[7] = system: HCC1143; conditions: Homo sapiens; HCC1143 breast; monotherapy; read-out: mono AC50
Description: as §1, §2, §3, §4, §5, §6, §7, §8

[8] = system: HCC1187; conditions: Homo sapiens; HCC1187 breast; monotherapy; read-out: mono AC50
Description: as §1, §2, §3, §4, §5, §6, §7, §8

[9] = system: HCC1395; conditions: Homo sapiens; HCC1395 breast; monotherapy; read-out: mono AC50
Description: as §1, §2, §3, §4, §5, §6, §7, §8

[10] = system: HCC1806; conditions: Homo sapiens; HCC1806 breast; monotherapy; read-out: mono AC50
Description: as §1, §2, §3, §4, §5, §6, §7, §8

[11] = system: LU99; conditions: Homo sapiens, Lu-99; LU99 lung; monotherapy; read-out: mono AC50
Description: as §1, §2, §3, §4, §5, §6, §7, §8

[12] = system: MCF7 T52; conditions: Homo sapiens; MCF7 T52 breast; monotherapy; read-out: mono AC50
Description: as §1, §2, §3, §4, §5, §6, §7, §8

[13] = system: MDA-MB-231; conditions: Homo sapiens; MDA-MB-231 breast; monotherapy; read-out: mono AC50
Description: as §1, §2, §3, §4, §5, §6, §7, §8

[14] = system: MDA-MB-468; conditions: Homo sapiens; MDA-MB-468 breast; monotherapy; read-out: mono AC50
Description: as §1, §2, §3, §4, §5, §6, §7, §8

[15] = system: NCI-H1373; conditions: Homo sapiens; NCI-H1373 lung; monotherapy; read-out: mono AC50
Description: as §1, §2, §3, §4, §5, §6, §7, §8

[16] = system: NCI-H1573; conditions: Homo sapiens, NCI-H1573, 240 h, NCI-H1573 lung; monotherapy; read-out: mono AC50
Description: as §1, §2, §3, §4, §5, §6, §7, §8

[17] = system: NCI-H1993; conditions: Homo sapiens; NCI-H1993 lung; monotherapy; read-out: mono AC50
Description: as §1, §2, §3, §4, §5, §6, §7, §8

[18] = system: NCI-H2291; conditions: Homo sapiens; NCI-H2291 lung; monotherapy; read-out: mono AC50
Description: as §1, §2, §3, §4, §5, §6, §7, §8

[19] = system: NCI-H23; conditions: Homo sapiens; NCI-H23 lung; monotherapy; read-out: mono AC50
Description: as §1, §2, §3, §4, §5, §6, §7, §8

[20] = system: NCI-H522; conditions: Homo sapiens; NCI-H522 lung; monotherapy; read-out: mono AC50
Description: as §1, §2, §3, §4, §5, §6, §7, §8

[21] = system: NCI-H810; conditions: Homo sapiens; NCI-H810 lung; monotherapy; read-out: mono AC50
Description: as §1, §2, §3, §4, §5, §6, §7, §8

[22] = system: NCI-H838; conditions: Homo sapiens; NCI-H838 lung; monotherapy; read-out: mono AC50
Description: as §1, §2, §3, §4, §5, §6, §7, §8

[23] = system: PC-9; conditions: Homo sapiens; PC-9 lung; monotherapy; read-out: mono AC50
Description: as §1, §2, §3, §4, §5, §6, §7, §8

[24] = system: SW1573; conditions: Homo sapiens; SW1573 lung; monotherapy; read-out: mono AC50
Description: as §1, §2, §3, §4, §5, §6, §7, §8

[25] = system: T47D; conditions: Homo sapiens; T47D breast; monotherapy; read-out: mono AC50
Description: as §1, §2, §3, §4, §5, §6, §7, §8

Structure (SMILES): C[C@@H]1COCCN1c1cc(C2([S@](C)(=N)=O)CC2)nc(-c2ccnc3[nH]ccc23)n1 [AZD6738, 4-{4-[(3R)-3-Methylmorpholin-4-yl]-6-[1-((R)—S-methylsulfonimidoyl)cyclopropyl]pyrimidin-2-yl}-1H-pyrrolo[2,3-b]-pyridine]
- AC50 [1]: 3.11 µM
- AC50 [2]: 3.83 µM
- AC50 [3]: 1180 nM
- AC50 [4]: 1360 nM
- AC50 ([5]; Calu-1 lung): 5.6 µM
- AC50 ([5]; Homo sapiens, Calu-1, Calu-1 lung): 3.22 µM
- AC50 [6]: 2180 nM
- AC50 [7]: 460 nM
- AC50 [8]: 531 nM
- AC50 [9]: 814 nM
- AC50 [10]: 412 nM
- AC50 [11]: 581 nM
- AC50 [12]: 1390 nM
- AC50 [13]: 866 nM
- AC50 [14]: 2310 nM
- AC50 [15]: 1240 nM
- AC50 [16]: 1390 nM
- AC50 [17]: 2970 nM
- AC50 [18]: 1120 nM
- AC50 [19]: 221 nM
- AC50 [20]: 5.65 µM
- AC50 [21]: 3.35 µM
- AC50 [22]: 274 nM
- AC50 [23]: 510 nM
- AC50 [24]: 3.65 µM
- AC50 [25]: 6.85 µM
